# Measured values taken from patent US20190038723A1, “Inhibiting UVB-Irradiation Damage By Targeting Nitric Oxide Synthases (cNOS)” (priority 2016, published 2019).
# Starred links: 1 amine or outer side, 2 acyl side, 3 side chain; linkers in the order of their positions; H or OH if unused. Positions of bridges follow the written chain, without caps; N, C: chain ends. Non-standard residues stand in square brackets, D forms with d. Residues, ends and D or L forms follow the SMILES beside them. Chains are numbered I, II in the order given. Actinocin(9to1) = Cc1c2oc3c(C)ccc(C(=O)[*:1])c3nc-2c(C(=O)[*:2])c(N)c1=O; NMeV = CN[C@H](C(=O)O)C(C)C; Sar = CNCC(=O)O
# Key:
# Type in all cases: cell-based, human
# [1] = tested on: HaCaT cells; experiment: Neutral comet assay of UVB-induced DNA damage in HaCaT cells; conditions: for reduction of UVB-induced DNA breakage in keratinocytes: L-NAME 1 mM, UVB 10 mJ/cm^2
# Protocol: FIGS. 10A-10B: UVB-induced DNA damage in HaCaT cells. The image (FIG. 10A) was captured by Cytation 3 Imaging Analyzer (BioTek, Winooski, Vt.); and, the DNA density (FIG. 10B) was analyzed by ImageJ (Version 1.46r. NIH) with Comet Assay Plugin (Pathology & Lab Med UNC-CH). *: p-value<0.05 vs. DMSO alone; **: p-value<0.05 vs. NAME. ***: p-value<0.05 vs. UV+DMSO. The data represents an average of DNA damage analysis for more than five cells.
# To assess the effect of cNOS inhibitor on UVB-induced DNA damage in keratinocutes, HaCaT cells were treated with DMSO (solvent) or L-NAME (1 mM) for 1 hour prior to UVB radiation (10 mJ/cm^2). At […] post-UVB, the cells were collected and DNA damage was determined using a neutral comet assay kit following manufacture's protocol (Trevigen, Gaithersburg, Md.).
# [2] = tested on: HaCaT cells; experiment: Soft-agar cell transformation assay after UVB; conditions: UVB every other day for 14 days
# Protocol: FIG. 11: UVB-induced HaCaT cells transformation. The cell transformation was determined using a Transformation assay kit (Cell Biolabs, Inc.). *: p-value<0.05 vs. control. **: p-value<0.05 vs. UVB alone. The data represents an average of 3 sets of independent experiments.
# To determine the chemoprevetive function of cNOS inhibitor for UVB-induced skin cell transformation, cells were treated with sham or UVB every other day for 14 days in the presence or absence of L-NAME (1 mM in media) all time. The cells were detached from plate and same amount of cells were seeded in soft-agar in 96-well microtiter plate. At day 10, the cells alone with soft-agar were solubilized in the wells using Cytoselect buffer (Cell Biolabs, Inc., San Diego, Calif.) and the amount of transformed cells was determined by fluorescence intensity using a Spectra Max M2 fluorescent platereader (Molecular Devices).
# [3] = tested on: IKKα mRNA; experiment: Quantitative real-time PCR of IKKα mRNA expression after UVB; conditions: HaCaT pre-treated with actinomycin D 5 μg/mL, UVB 50 mJ/cm^2
# Protocol: FIG. 3: Quantitative real-time PCR analysis of mRNA expression of IKKα in HaCaT human keratinocyte. The cells were pre-treated with DMSO or […] (Act.D, 5 μg/mL) and treated with of UVB (50 mJ/cm^2). The mRNA expression was normalized to GAP OH expression and depicted as fold change vs. DMSO control.
SMILES,"percentage of UVB-induced tail DNA content ([1]; L-NAME 1 mM for 1 hour prior to UVB 10 mJ/cm^2, cells collected at 30 mM post-UVB, UVB+DMSO 49.2%) [%]","tail DNA content, L-NAME alone ([1]; L-NAME 1 mM without UVB, DMSO alone 20.7%) [%]",reduction of UVB-induced DNA breakage in keratinocytes ([1]; Control = DMSO alone) [%],reduction of UVB-induced DNA breakage in keratinocytes ([1]; Control = L-NAME alone) [%],suppression of UVB-induced transformation of keratinocytes ([2]; L-NAME 1 mM in media),"reading of transformed cells (fluorescence intensity) ([2]; L-NAME 1 mM in media all time, soft-agar day 10, UVB alone 3.2)",effect on IKKα mRNA level post-UVB [3]
COC(=O)[C@@H](N)CCCNC(=N)N[N+](=O)[O-] [L-NAME],32.4,25.6,58.9,71.2,almost totally suppresses,1.3,
"Cc1c2oc3c(C)ccc(C(=O)N[C@@H]4C(=O)N[C@H](C(C)C)C(=O)N5CCC[C@H]5C(=O)N(C)CC(=O)N(C)[C@@H](C(C)C)C(=O)O[C@@H]4C)c3nc-2c(C(=O)N[C@@H]2C(=O)N[C@H](C(C)C)C(=O)N3CCC[C@H]3C(=O)N(C)CC(=O)N(C)[C@@H](C(C)C)C(=O)O[C@@H]2C)c(N)c1=O [actinomycin D] (I: T[dV]P[Sar][NMeV] / II: T[dV]P[Sar][NMeV]; ester I:1-I:C, II:1-II:C; linker I:N-II:N via Actinocin(9to1))",,,,,,,does not have a statistically significant effect
